Experimental data taken from patent US8062653B2, “Controlled release of nitric oxide and drugs from functionalized macromers and oligomers” (Bezwada Biomedical, LLC, priority 2009, dated 2011).

Tests used:
[1] = prior-art NO-releasing small molecules; cited from earlier work

melting point | SMILES | lifetime in physiological solution [1]
 | N[C@@H](CSN=O)C(=O)O [S-nitrosocysteine] | no more than about an hour
100 to 102 °C | O=C(CCCCCO[N+](=O)[O-])Oc1ccc(-c2coc3cc(OC(=O)CCCCCO[N+](=O)[O-])ccc3c2=O)cc1 | 
 | CC(C)(SN=O)C(N)C(=O)O (racemic) [S-nitroso-D,L-penicillamine] | no more than about an hour
